Laboratory results reported in the NIST ThermoML archive (doi:10.1021/je049777o).

Experiment: xn = mol fraction of the nth substance listed
Settings: 101.3 kPa, Liquid

Clc1ccccc1 [chlorobenzene] + COC(=O)OC
Settings | mass density [kg/m3] | viscosity [mPa·s]
293.15 K, x2 = 0 | 1106.74 | 0.8084
293.15 K, x2 = 0.1225 | 1102.19 | 0.7794
293.15 K, x2 = 0.238 | 1097.84 | 0.7586
293.15 K, x2 = 0.3499 | 1093.69 | 0.7315
293.15 K, x2 = 0.4545 | 1089.67 | 0.7132
293.15 K, x2 = 0.5559 | 1085.85 | 0.698
293.15 K, x2 = 0.6518 | 1082.22 | 0.6805
293.15 K, x2 = 0.7445 | 1078.84 | 0.6567
293.15 K, x2 = 0.8332 | 1075.58 | 0.6449
293.15 K, x2 = 0.9182 | 1072.42 | 0.6244
298.15 K, x2 = 0 | 1101.33 | 0.7422
298.15 K, x2 = 0.1225 | 1096.65 | 0.7318
298.15 K, x2 = 0.238 | 1092.16 | 0.7193
298.15 K, x2 = 0.3499 | 1087.88 | 0.6956
298.15 K, x2 = 0.4545 | 1083.72 | 0.6864
298.15 K, x2 = 0.5559 | 1079.81 | 0.6627
298.15 K, x2 = 0.6518 | 1076.05 | 0.6427
298.15 K, x2 = 0.7445 | 1072.55 | 0.6226
298.15 K, x2 = 0.8332 | 1069.17 | 0.6017
298.15 K, x2 = 0.9182 | 1065.93 | 0.5856
303.15 K, x2 = 0 | 1095.96 | 0.7053
303.15 K, x2 = 0.1225 | 1091.12 | 0.6862
303.15 K, x2 = 0.238 | 1086.51 | 0.6624
303.15 K, x2 = 0.3499 | 1082.09 | 0.646
303.15 K, x2 = 0.4545 | 1077.8 | 0.6408
303.15 K, x2 = 0.5559 | 1073.76 | 0.6134
303.15 K, x2 = 0.6518 | 1069.91 | 0.6014
303.15 K, x2 = 0.7445 | 1066.28 | 0.5781
303.15 K, x2 = 0.8332 | 1062.78 | 0.5632
303.15 K, x2 = 0.9182 | 1059.45 | 0.5487
313.15 K, x2 = 0 | 1085.06 | 0.631
313.15 K, x2 = 0.1225 | 1079.97 | 0.6145
313.15 K, x2 = 0.238 | 1075.08 | 0.5875
313.15 K, x2 = 0.3499 | 1070.36 | 0.5709
313.15 K, x2 = 0.4545 | 1065.81 | 0.563
313.15 K, x2 = 0.5559 | 1061.54 | 0.5423
313.15 K, x2 = 0.6518 | 1057.46 | 0.5322
313.15 K, x2 = 0.7445 | 1053.56 | 0.5192
313.15 K, x2 = 0.8332 | 1049.86 | 0.4992
313.15 K, x2 = 0.9182 | 1046.32 | 0.4874
323.15 K, x2 = 0 | 1074.26 | 0.5677
323.15 K, x2 = 0.1225 | 1068.8 | 0.5546
323.15 K, x2 = 0.238 | 1063.63 | 0.5273
323.15 K, x2 = 0.3499 | 1058.61 | 0.5145
323.15 K, x2 = 0.4545 | 1053.8 | 0.5039
323.15 K, x2 = 0.5559 | 1049.32 | 0.4878
323.15 K, x2 = 0.6518 | 1044.96 | 0.4729
323.15 K, x2 = 0.7445 | 1040.83 | 0.4591
323.15 K, x2 = 0.8332 | 1036.88 | 0.4468
323.15 K, x2 = 0.9182 | 1033.12 | 0.4365
333.15 K, x2 = 0 | 1063.32 | 0.5069
333.15 K, x2 = 0.1225 | 1057.53 | 0.4954
333.15 K, x2 = 0.238 | 1052.07 | 0.4791
333.15 K, x2 = 0.3499 | 1046.76 | 0.4619
333.15 K, x2 = 0.4545 | 1041.66 | 0.452
333.15 K, x2 = 0.5559 | 1036.93 | 0.4401
333.15 K, x2 = 0.6518 | 1032.33 | 0.4277
333.15 K, x2 = 0.7445 | 1027.92 | 0.415
333.15 K, x2 = 0.8332 | 1023.72 | 0.4046
333.15 K, x2 = 0.9182 | 1019.74 | 0.3949
343.15 K, x2 = 0 | 1052.44 | 0.4658
343.15 K, x2 = 0.1225 | 1046.33 | 0.455
343.15 K, x2 = 0.238 | 1040.54 | 0.4326
343.15 K, x2 = 0.3499 | 1034.93 | 0.4242
343.15 K, x2 = 0.4545 | 1029.51 | 0.4142
343.15 K, x2 = 0.5559 | 1024.52 | 0.3978
343.15 K, x2 = 0.6518 | 1019.67 | 0.3879
343.15 K, x2 = 0.7445 | 1014.99 | 0.377
343.15 K, x2 = 0.8332 | 1010.53 | 0.3678
343.15 K, x2 = 0.9182 | 1006.31 | 0.3609
